Laboratory results reported in US9068017B2, “Compositions and methods for inhibiting terminal transferase activity” (IBIS BIOSCIENCES, INC., priority 2010, dated 2015).

System: polymerase having terminal transferase activity
Protocol: PCR products with and without boric acid added to PCR components and reagents prior to thermal cycling steps were compared. Stock boric acid was dissolved in 50% primer dilution buffer and added to PCR reactions for a final concentration of 100 mM boric acid and 200 mM boric acid.

OB(O)O [boric acid]
3′ non-template addition of amplicons resulting from polymerase dependent terminal transferase activity (addition of boric acid to amplification reactions, summary statement, no concentration given): reduced 3′ non-template addition
non-template addition on forward and reverse strands of PCR products (boric acid added before thermal cycling, final concentration 100 mM and 200 mM, mass spectrometry (FIG. 1), non-template addition identified in absence of boric acid): undetectable non-template addition on both the forward and reverse strands
